US6652479B2, “Method and apparatus for transcutaneous infusion of carbon dioxide for local relief of pain and other ailments” (Capnia, Inc., priority 2000, dated 2003)

Tests used:
[1] = in vitro rate of CO2 absorption by water-soaked paper towel (funnel / oil bolus apparatus); format: physicochemical; settings: 80-cm^2 area test surface, several tests
Description: To determine the inherent rate of absorption and diffusion of CO2 in a “passive” aqueous medium a preliminary in vitro experiment was performed. The apparatus and method employed for measuring the rate of CO2 absorption by a surface is illustrated in FIG. 1. The device was placed on a table top 150, and comprised a source of CO2 in the form of a cylinder 101 and a flow regulator 110, including a pressure regulator 112 and flow meter 113. Polyethylene tubing 115 of approximately 0.2 cm^2 lumen connected the cylinder 101 to a glass funnel 120 having a maximum area of 80 cm^2. An additional length of tubing 125 was used for measurement of changes in gas volume. This gas volume measurement means used in the experiment could be eliminated in a device intended to administer CO2 to a patient's skin surface. The entire system was purged of air by prolonged CO2 flow. The additional length of tubing 125 was purged first, then a bolus of low-volatility (forepump) oil 130 was inserted into its open end and the end plugged. […]
Next, the funnel was placed on test surface 140 of a 0.4-mm thick water-soaked paper towel having about the same thickness as skin. […] The observed initial rate of absorption determined from several such tests fell in the range 0.6-1.2 ml/min, and saturation occurred at 4-10 ml, for the 80-cm^2 area test surface. […]

[2] = tested on: skin on the right anterior thigh; experiment: rate of transcutaneous absorption of gaseous CO2 into a human body (funnel on wet skin); format: in vivo
Description: To determine the inherent rate of absorption and diffusion of CO2 in a “passive” aqueous medium a preliminary in vitro experiment was performed. The apparatus and method employed for measuring the rate of CO2 absorption by a surface is illustrated in FIG. 1. The device was placed on a table top 150, and comprised a source of CO2 in the form of a cylinder 101 and a flow regulator 110, including a pressure regulator 112 and flow meter 113. Polyethylene tubing 115 of approximately 0.2 cm^2 lumen connected the cylinder 101 to a glass funnel 120 having a maximum area of 80 cm^2. An additional length of tubing 125 was used for measurement of changes in gas volume. This gas volume measurement means used in the experiment could be eliminated in a device intended to administer CO2 to a patient's skin surface. The entire system was purged of air by prolonged CO2 flow. The additional length of tubing 125 was purged first, then a bolus of low-volatility (forepump) oil 130 was inserted into its open end and the end plugged. The funnel 120 was then purged with its open end resting on a portion of the selected test surface 140 immediately adjacent to the portion to be tested, and with the purge flow escaping at its edge. At zero time the purge flow was terminated, the plug in the tube 125 end was removed and the funnel was slid onto the test portion of the surface without breaking the seal between the funnel edge and the wet surface. The displacement of the oil bolus 130 within the 0.20 cm^2 lumen of the tube 125 was then observed as CO2 gas was removed from the closed system via absorption in the surface 140; i.e., each cm of displacement corresponded to absorption of 0.20 cc of gas by 80 cm^2 of test surface.
An area of skin on the right anterior thigh sufficiently large for two positions of the funnel 120 applicator was washed thoroughly and soaked with water for fifteen minutes. The funnel 120 was purged of air by prolonged CO2 flow (for about 10 minutes) while seated on the wet skin in the upper thigh position 160, and then was slid to the lower thigh position 170 at zero time. […] In other words, it appeared that less than <0.1 ml of gas was absorbed. […] Therefore, the inventors concluded that some quantity of CO2, sufficient to cause the observed vascular effects, must have diffused into the skin. Therefore, the inventors continued with their experiments to determine if a transcutaneous application of CO2 would reduce local pain.

[3] = tested on: allergic rhinitis attack; experiment: treatment of allergic rhinitis by carbonated water nasal spray; format: in vivo, human; settings: carbonated water spray and gaseous CO2 infusion used alternately over a day, one subject
Source text: Because of the observed similarity of the physiological effects of gaseous CO2 and a […] solution (carbonated water) applied to the skin, the inventors believed that a […] solution might be effective for treatment of upper respiratory indications for which infusion of gaseous CO2 is effective. With reference to FIG. 5, to test this hypothesis, a 70-ml commercially marketed plastic “squeeze” bottle 510 for dispensing a physiological saline spray was 3⁄4 filled with fresh effervescing carbonated water. The carbonated water spray was then sprayed into the nose of a subject 520 who was suffering a mild allergic rhinitis attack. […] During the course of a day as allergic rhinitis attacks reoccurred, the carbonated water spray and gaseous CO2 infusion were used alternately and their relative effectiveness assessed. […] The disagreeable aspects cited were the discomfort associated with a liquid being sprayed up the nose and the messiness of the effluent liquid from the nose after the spray. Nevertheless, the carbonated nasal spray is a distinct alternative for treatment of the upper respiratory distress indications, and shares many of the advantages of a gaseous CO2 infusion treatment including effectiveness, ease of use, rapid relief on demand, unlimited dose, low cost, and freedom from aftereffects and other contraindications associated with the use of drugs. […]

[4] = tested on: muscular-skeletal pain conditions (cervico-cranial syndrome, cervico-brachial syndrome, lumbalgia); settings: cited from earlier work
[5] = after subcutaneous injection of 100-200 ml CO2 gas
[6] = of 335 patients treated, 100-200 ml CO2 gas injected under the skin, 10-15 injections over 2-5 weeks

O=C=O [CO2, carbon dioxide]
absorbed gas volume at saturation [1]: 4 to 10 mL
initial rate of absorption of gaseous CO2 [1]: 0.6 to 1.2 mL/min
skin reaction over region in contact with CO2 ([2]; after about 10 minutes contact with gaseous CO2): a hyperemia was observed
aftereffects ([2]; gaseous CO2 on wet skin): no observed aftereffects
time for reddening to develop in contact with CO2 ([2]; gaseous CO2 on wet skin): three to five
time for reddening to subside after removal of the CO2 ([2]; gaseous CO2 on wet skin): a similar period
gas absorbed by the skin ([2]; wet skin, 80 cm^2 funnel, about 10 minutes, several tests): < 0.1 mL
relative effectiveness for relief and suppression of allergic rhinitis symptoms [3]: equally effective
diameter of gas emphysemum at injection site [4, 5]: ~8 cm
skin reaction at the injection site [4, 5]: mild hyperemia
time for gas emphysemum and hyperemia to disappear after the injection [4, 5]: 3 to 5 min
patients improved with some remaining distress [4, 6]: 157
patients who became difficulty-free or were substantially improved [4, 6]: 171
patients with no improvement [4, 6]: 7
number of treatments after which improvement of the indicated disorder occurred ([4]; subcutaneous injection of 100-200 ml CO2 gas daily or twice-weekly): 4-5 treatments
